Residues, ends and D or L forms follow the SMILES beside them.
Assays:
[1] = tested on: Human immunodeficiency virus 1; assay: Binding affinity to HIV1 His-tagged N-terminal heptad repeat of envelope glycoprotein gp41 assessed as recovery of N36-drug complex at 6 uM after 2 hrs by LC-MS analysis
[2] = tested on: Human immunodeficiency virus 1; assay: Thermal stability of HIV1 envelope glycoprotein gp41 His-tagged N-terminal heptad repeat N36-drug complex assessed as thermal unfolding transition state by measuring molar ellipticity at 4 to 90 degC by circular dichroic spectra analysis
[3] = tested on: Human immunodeficiency virus 1; assay: Binding affinity to HIV1 His-tagged N-terminal heptad repeat of envelope glycoprotein gp41 assessed as recovery of N36-drug complex at 10 uM after 2 hrs by LC-MS analysis
[4] = tested on: Human immunodeficiency virus 1; assay: Binding affinity to HIV1 His-tagged N-terminal heptad repeat of envelope glycoprotein gp41 assessed as recovery of N36-drug complex at 0.6 uM after 2 hrs by LC-MS analysis
[5] = tested on: Human immunodeficiency virus 1; assay: Binding affinity to HIV1 His-tagged N-terminal heptad repeat of envelope glycoprotein gp41 assessed as recovery of N36-drug complex at 1 uM after 2 hrs by LC-MS analysis
[6] = tested on: Human immunodeficiency virus 1; assay: Antiviral activity against HIV1 NL4-3 harboring gp41 D36G mutant infected in human HeLa cells expressing CD4-LTR-beta-gal assessed as inhibition of viral replication after 48 hrs by MAGI assay; type: functional, organism-based
[7] = tested on: Human immunodeficiency virus 1; assay: Binding affinity to HIV1 His-tagged N-terminal heptad repeat of envelope glycoprotein gp41 assessed as recovery of N36-drug complex after 2 hrs by LC-MS analysis; set-up: concentration or dose not given beside the values

Compound | Activity [1] | Tm [2] | Activity [3] | Activity [4] | Activity [5] | EC50 [6] | Activity [7]
CC[C@H](C)[C@H](NC(=O)[C@H](CC(C)C)NC(=O)[C@H](CCC(=O)O)NC(=O)[C@H](CCC(=O)O)NC(=O)[C@@H](NC(=O)[C@H](CCCCN)NC(=O)[C@H](CCCCN)NC(=O)[C@@H](NC(=O)[C@H](Cc1ccc(O)cc1)NC(=O)[C@H](CCC(=O)O)NC(=O)[C@H](CCC(=O)O)NC(=O)[C@@H](NC(=O)[C@H](CCCCN)NC(=O)[C@H](CCCCN)NC(=O)[C@H](CC(=O)O)NC(=O)[C@H](Cc1c[nH]c2ccccc12)NC(=O)[C@H](CCC(=O)O)NC(=O)[C@H](CCC(=O)O)NC(=O)[C@H](Cc1c[nH]c2ccccc12)NC(C)=O)[C@@H](C)CC)[C@@H](C)O)[C@@H](C)CC)C(=O)N[C@@H](CCCCN)C(=O)N[C@@H](CCCCN)C(=O)N[C@@H](CC(=O)O)C(=O)N[C@@H](CCC(=O)O)C(=O)N[C@@H](CCC(=O)O)C(=O)N[C@@H](CCC(N)=O)C(=O)N[C@@H](CCC(N)=O)C(=O)N[C@@H](CCCCN)C(=O)N[C@@H](CCCCN)C(=O)N[C@@H](CC(N)=O)C(=O)N[C@@H](CCC(=O)O)C(=O)N[C@@H](CCC(=O)O)C(=O)N[C@@H](CCC(=O)O)C(=O)N[C@@H](CC(C)C)C(=O)N[C@@H](CCCCN)C(=O)N[C@@H](CCCCN)C(N)=O (Ac-WEEWDKKIEEYTKKIEELIKKDEEQQKKNEEELKK-NH2) | 0% | 59.7 °C | 0.7% | 4.3% | 0% | 15 nM | 
CC[C@H](C)[C@H](NC(=O)[C@H](CC(C)C)NC(=O)[C@H](CCC(=O)O)NC(=O)[C@H](CCC(=O)O)NC(=O)[C@@H](NC(=O)[C@H](CCCCN)NC(=O)[C@H](CCCCN)NC(=O)[C@@H](NC(=O)[C@H](Cc1ccc(O)cc1)NC(=O)[C@H](CCC(=O)O)NC(=O)[C@H](CCC(=O)O)NC(=O)[C@@H](NC(=O)[C@H](CCCCN)NC(=O)[C@H](CCCCN)NC(=O)[C@H](CC(=O)O)NC(=O)[C@H](Cc1c[nH]c2ccccc12)NC(=O)[C@H](CCC(=O)O)NC(=O)[C@H](CCC(=O)O)NC(=O)[C@H](Cc1c[nH]c2ccccc12)NC(C)=O)[C@@H](C)CC)[C@@H](C)O)[C@@H](C)CC)C(=O)N[C@@H](CCCCN)C(=O)N[C@@H](CCCCN)C(=O)N[C@@H](CCC(=O)O)C(=O)N[C@@H](CCC(=O)O)C(=O)N[C@@H](CCC(=O)O)C(=O)N[C@@H](CCC(N)=O)C(=O)N[C@@H](CCC(N)=O)C(=O)N[C@@H](CCCCN)C(=O)N[C@@H](CCCCN)C(=O)N[C@@H](CC(N)=O)C(=O)N[C@@H](CCC(=O)O)C(=O)N[C@@H](CCC(=O)O)C(=O)N[C@@H](CCC(=O)O)C(=O)N[C@@H](CC(C)C)C(=O)N[C@@H](CCCCN)C(=O)N[C@@H](CCCCN)C(N)=O (Ac-WEEWDKKIEEYTKKIEELIKKEEEQQKKNEEELKK-NH2) | 1% | 66.2 °C | 1.3% | 5.1% | 1.8% | 15 nM | 
CC[C@H](C)[C@H](NC(=O)[C@H](CC(C)C)NC(=O)[C@H](CCC(=O)O)NC(=O)[C@H](CCC(=O)O)NC(=O)[C@@H](NC(=O)[C@H](CCCCN)NC(=O)[C@H](CCCCN)NC(=O)[C@@H](NC(=O)[C@H](Cc1ccc(O)cc1)NC(=O)[C@H](CCC(=O)O)NC(=O)[C@H](CCC(=O)O)NC(=O)[C@@H](NC(=O)[C@H](CCCCN)NC(=O)[C@H](CCCCN)NC(=O)[C@H](CC(=O)O)NC(=O)[C@H](Cc1c[nH]c2ccccc12)NC(=O)[C@H](CCC(=O)O)NC(=O)[C@H](CCC(=O)O)NC(=O)[C@H](Cc1c[nH]c2ccccc12)NC(C)=O)[C@@H](C)CC)[C@@H](C)O)[C@@H](C)CC)C(=O)N[C@@H](CCCCN)C(=O)N[C@@H](CCCCN)C(=O)N[C@@H](Cc1ccccc1)C(=O)N[C@@H](CCC(=O)O)C(=O)N[C@@H](CCC(=O)O)C(=O)N[C@@H](CCC(N)=O)C(=O)N[C@@H](CCC(N)=O)C(=O)N[C@@H](CCCCN)C(=O)N[C@@H](CCCCN)C(=O)N[C@@H](CC(N)=O)C(=O)N[C@@H](CCC(=O)O)C(=O)N[C@@H](CCC(=O)O)C(=O)N[C@@H](CCC(=O)O)C(=O)N[C@@H](CC(C)C)C(=O)N[C@@H](CCCCN)C(=O)N[C@@H](CCCCN)C(N)=O (Ac-WEEWDKKIEEYTKKIEELIKKFEEQQKKNEEELKK-NH2) | 0.6% | 72.9 °C | 0.7% | 6.3% | 4% | 1.5 nM | 
CC[C@H](C)[C@H](NC(=O)[C@H](CC(C)C)NC(=O)[C@H](CCC(=O)O)NC(=O)[C@H](CCC(=O)O)NC(=O)[C@@H](NC(=O)[C@H](CCCCN)NC(=O)[C@H](CCCCN)NC(=O)[C@@H](NC(=O)[C@H](Cc1ccc(O)cc1)NC(=O)[C@H](CCC(=O)O)NC(=O)[C@H](CCC(=O)O)NC(=O)[C@@H](NC(=O)[C@H](CCCCN)NC(=O)[C@H](CCCCN)NC(=O)[C@H](CC(=O)O)NC(=O)[C@H](Cc1c[nH]c2ccccc12)NC(=O)[C@H](CCC(=O)O)NC(=O)[C@H](CCC(=O)O)NC(=O)[C@H](Cc1c[nH]c2ccccc12)NC(C)=O)[C@@H](C)CC)[C@@H](C)O)[C@@H](C)CC)C(=O)N[C@@H](CCCCN)C(=O)N[C@@H](CCCCN)C(=O)NCC(=O)N[C@@H](CCC(=O)O)C(=O)N[C@@H](CCC(=O)O)C(=O)N[C@@H](CCC(N)=O)C(=O)N[C@@H](CCC(N)=O)C(=O)N[C@@H](CCCCN)C(=O)N[C@@H](CCCCN)C(=O)N[C@@H](CC(N)=O)C(=O)N[C@@H](CCC(=O)O)C(=O)N[C@@H](CCC(=O)O)C(=O)N[C@@H](CCC(=O)O)C(=O)N[C@@H](CC(C)C)C(=O)N[C@@H](CCCCN)C(=O)N[C@@H](CCCCN)C(N)=O (Ac-WEEWDKKIEEYTKKIEELIKKGEEQQKKNEEELKK-NH2) | 14.4% | 79.1 °C | 13.8% | 5.9% | 11.6% | 1.9 nM | 
CC[C@H](C)[C@H](NC(=O)[C@H](CC(C)C)NC(=O)[C@H](CCC(=O)O)NC(=O)[C@H](CCC(=O)O)NC(=O)[C@@H](NC(=O)[C@H](CCCCN)NC(=O)[C@H](CCCCN)NC(=O)[C@@H](NC(=O)[C@H](Cc1ccc(O)cc1)NC(=O)[C@H](CCC(=O)O)NC(=O)[C@H](CCC(=O)O)NC(=O)[C@@H](NC(=O)[C@H](CCCCN)NC(=O)[C@H](CCCCN)NC(=O)[C@H](CC(=O)O)NC(=O)[C@H](Cc1c[nH]c2ccccc12)NC(=O)[C@H](CCC(=O)O)NC(=O)[C@H](CCC(=O)O)NC(=O)[C@H](Cc1c[nH]c2ccccc12)NC(C)=O)[C@@H](C)CC)[C@@H](C)O)[C@@H](C)CC)C(=O)N[C@@H](CCCCN)C(=O)N[C@@H](CCCCN)C(=O)N[C@@H](CO)C(=O)N[C@@H](CCC(=O)O)C(=O)N[C@@H](CCC(=O)O)C(=O)N[C@@H](Cc1ccc(O)cc1)C(=O)N[C@@H](CCC(N)=O)C(=O)N[C@@H](CCCCN)C(=O)N[C@@H](CCCCN)C(=O)N[C@@H](CC(N)=O)C(=O)N[C@@H](CCC(=O)O)C(=O)N[C@@H](CCC(=O)O)C(=O)N[C@@H](CCC(=O)O)C(=O)N[C@@H](CC(C)C)C(=O)N[C@@H](CCCCN)C(=O)N[C@@H](CCCCN)C(N)=O (Ac-WEEWDKKIEEYTKKIEELIKKSEEYQKKNEEELKK-NH2) |  | 76.3 °C |  |  |  | 2.2 nM | 5.5%

Source: ChEMBL document CHEMBL3390848, “Affinity selection and sequence-activity relationships of HIV-1 membrane fusion inhibitors directed at the drug-resistant variants” (Medchemcomm, 2010)
